Measurements as given in PubChem BioAssay (NCI).
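Grown in 96-well plates, cells were treated for 48 hours with each compound at five concentrations. Insufficient inhibition: endpoint recorded as highest concentration tested. TGI is the concentration that stops growth completely.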

Columns and labels:
Experiment in all cases: inhibition of tumour cell growth, NCI panel, 48 h
786-0 renal = tested on: 786-0 renal
A498 renal = tested on: A498 renal
A549 NSCLC = tested on: A549 NSCLC
ACHN renal = tested on: ACHN renal
CAKI-1 renal = tested on: CAKI-1 renal
CCRF-CEM leukemia = tested on: CCRF-CEM leukemia
COLO 205 colon = tested on: COLO 205 colon
DLD-1 colon = tested on: DLD-1 colon
DMS 114 small cell lung = tested on: DMS 114 small cell lung
DMS 273 small cell lung = tested on: DMS 273 small cell lung
EKVX NSCLC = tested on: EKVX NSCLC
HCC-2998 colon = tested on: HCC-2998 colon
HCT-116 colon = tested on: HCT-116 colon
HCT-15 colon = tested on: HCT-15 colon
HL-60(TB) leukemia = tested on: HL-60(TB) leukemia
HOP-18 NSCLC = tested on: HOP-18 NSCLC
HOP-62 NSCLC = tested on: HOP-62 NSCLC
HOP-92 NSCLC = tested on: HOP-92 NSCLC
HT29 colon = tested on: HT29 colon
IGROV1 ovarian = tested on: IGROV1 ovarian
K-562 leukemia = tested on: K-562 leukemia
KM12 colon = tested on: KM12 colon
KM20L2 colon = tested on: KM20L2 colon
LOX IMVI melanoma = tested on: LOX IMVI melanoma
LXFL 529 NSCLC = tested on: LXFL 529 NSCLC
M14 melanoma = tested on: M14 melanoma
MALME-3M melanoma = tested on: MALME-3M melanoma
MOLT-4 leukemia = tested on: MOLT-4 leukemia
NCI-H226 lung = tested on: NCI-H226 lung
NCI-H23 lung = tested on: NCI-H23 lung
NCI-H460 lung = tested on: NCI-H460 lung
NCI-H522 lung = tested on: NCI-H522 lung
OVCAR-3 ovarian = tested on: OVCAR-3 ovarian
OVCAR-4 ovarian = tested on: OVCAR-4 ovarian
OVCAR-5 ovarian = tested on: OVCAR-5 ovarian
OVCAR-8 ovarian = tested on: OVCAR-8 ovarian
RPMI-8226 leukemia = tested on: RPMI-8226 leukemia
RXF 393 renal = tested on: RXF 393 renal
RXF-631 renal = tested on: RXF-631 renal
SF-268 CNS = tested on: SF-268 CNS
SF-295 CNS = tested on: SF-295 CNS
SF-539 CNS = tested on: SF-539 CNS
SK-MEL-28 melanoma = tested on: SK-MEL-28 melanoma
SK-MEL-5 melanoma = tested on: SK-MEL-5 melanoma
SK-OV-3 ovarian = tested on: SK-OV-3 ovarian
SN12C renal = tested on: SN12C renal
SNB-19 CNS = tested on: SNB-19 CNS
SNB-75 CNS = tested on: SNB-75 CNS
SNB-78 CNS = tested on: SNB-78 CNS
SR leukemia = tested on: SR leukemia
SW-620 colon = tested on: SW-620 colon
TK-10 renal = tested on: TK-10 renal
U251 CNS = tested on: U251 CNS
UACC-257 melanoma = tested on: UACC-257 melanoma
UACC-62 melanoma = tested on: UACC-62 melanoma
UO-31 renal = tested on: UO-31 renal
XF 498 CNS = tested on: XF 498 CNS
M19-MEL melanoma = tested on: M19-MEL melanoma
SK-MEL-2 melanoma = tested on: SK-MEL-2 melanoma

Cc1ccc(C(=O)O)cc1NC(=O)c1cc(/C=C/c2ccccc2)[nH]c(=S)n1
TGI (786-0 renal): > 100 µM | TGI (A498 renal): > 100 µM | TGI (A549 NSCLC): > 100 µM | TGI (ACHN renal): > 100 µM | TGI (CAKI-1 renal): > 100 µM | TGI (CCRF-CEM leukemia): > 100 µM | TGI (COLO 205 colon): > 100 µM | TGI (DLD-1 colon): > 77.1 µM | TGI (DMS 114 small cell lung): > 100 µM | TGI (DMS 273 small cell lung): > 100 µM | TGI (EKVX NSCLC): > 100 µM | TGI (HCC-2998 colon): > 100 µM | TGI (HCT-116 colon): > 53 µM | TGI (HCT-15 colon): > 60.7 µM | TGI (HL-60(TB) leukemia): > 100 µM | TGI (HOP-18 NSCLC): > 100 µM | TGI (HOP-62 NSCLC): > 100 µM | TGI (HOP-92 NSCLC): > 100 µM | TGI (HT29 colon): > 100 µM | TGI (IGROV1 ovarian): > 100 µM | TGI (K-562 leukemia): > 100 µM | TGI (KM12 colon): > 100 µM | TGI (KM20L2 colon): > 100 µM | TGI (LOX IMVI melanoma): > 100 µM | TGI (LXFL 529 NSCLC): > 100 µM | TGI (M14 melanoma): > 100 µM | TGI (MALME-3M melanoma): > 100 µM | TGI (MOLT-4 leukemia): > 100 µM | TGI (NCI-H226 lung): > 100 µM | TGI (NCI-H23 lung): > 100 µM | TGI (NCI-H460 lung): > 100 µM | TGI (NCI-H522 lung): > 100 µM | TGI (OVCAR-3 ovarian): > 100 µM | TGI (OVCAR-4 ovarian): > 100 µM | TGI (OVCAR-5 ovarian): > 100 µM | TGI (OVCAR-8 ovarian): > 100 µM | TGI (RPMI-8226 leukemia): > 69.7 µM | TGI (RXF 393 renal): > 100 µM | TGI (RXF-631 renal): > 100 µM | TGI (SF-268 CNS): > 100 µM | TGI (SF-295 CNS): > 100 µM | TGI (SF-539 CNS): > 100 µM | TGI (SK-MEL-28 melanoma): > 100 µM | TGI (SK-MEL-5 melanoma): > 100 µM | TGI (SK-OV-3 ovarian): > 100 µM | TGI (SN12C renal): > 100 µM | TGI (SNB-19 CNS): > 100 µM | TGI (SNB-75 CNS): > 100 µM | TGI (SNB-78 CNS): > 100 µM | TGI (SR leukemia): > 100 µM | TGI (SW-620 colon): > 48.8 µM | TGI (TK-10 renal): > 100 µM | TGI (U251 CNS): > 100 µM | TGI (UACC-257 melanoma): > 100 µM | TGI (UACC-62 melanoma): > 100 µM | TGI (UO-31 renal): > 100 µM | TGI (XF 498 CNS): > 100 µM

CCOC(=O)C12CCCC1(O)N(NC(N)=O)C(C)=C2C(=O)OC (configuration not stated)
TGI (786-0 renal): > 100 µM | TGI (A498 renal): > 100 µM | TGI (A549 NSCLC): > 100 µM | TGI (ACHN renal): > 100 µM | TGI (CAKI-1 renal): > 100 µM | TGI (CCRF-CEM leukemia): > 100 µM | TGI (COLO 205 colon): > 100 µM | TGI (DLD-1 colon): > 100 µM | TGI (DMS 114 small cell lung): > 100 µM | TGI (DMS 273 small cell lung): > 100 µM | TGI (EKVX NSCLC): > 100 µM | TGI (HCC-2998 colon): > 100 µM | TGI (HCT-116 colon): > 100 µM | TGI (HCT-15 colon): > 100 µM | TGI (HL-60(TB) leukemia): > 100 µM | TGI (HOP-18 NSCLC): > 100 µM | TGI (HOP-62 NSCLC): > 100 µM | TGI (HOP-92 NSCLC): > 100 µM | TGI (HT29 colon): > 100 µM | TGI (IGROV1 ovarian): > 100 µM | TGI (K-562 leukemia): > 100 µM | TGI (KM12 colon): > 100 µM | TGI (KM20L2 colon): > 100 µM | TGI (LOX IMVI melanoma): > 100 µM | TGI (LXFL 529 NSCLC): > 100 µM | TGI (M14 melanoma): > 100 µM | TGI (M19-MEL melanoma): > 100 µM | TGI (MALME-3M melanoma): > 100 µM | TGI (MOLT-4 leukemia): > 100 µM | TGI (NCI-H226 lung): > 100 µM | TGI (NCI-H23 lung): > 100 µM | TGI (NCI-H460 lung): > 100 µM | TGI (NCI-H522 lung): > 100 µM | TGI (OVCAR-3 ovarian): > 100 µM | TGI (OVCAR-4 ovarian): > 100 µM | TGI (OVCAR-5 ovarian): > 100 µM | TGI (OVCAR-8 ovarian): > 100 µM | TGI (RPMI-8226 leukemia): > 100 µM | TGI (RXF-631 renal): > 100 µM | TGI (SF-268 CNS): > 100 µM | TGI (SF-295 CNS): > 100 µM | TGI (SF-539 CNS): > 100 µM | TGI (SK-MEL-2 melanoma): > 100 µM | TGI (SK-MEL-28 melanoma): > 100 µM | TGI (SK-OV-3 ovarian): > 100 µM | TGI (SN12C renal): > 100 µM | TGI (SNB-19 CNS): > 100 µM | TGI (SNB-78 CNS): > 100 µM | TGI (SW-620 colon): > 100 µM | TGI (TK-10 renal): > 100 µM | TGI (U251 CNS): > 100 µM | TGI (UACC-257 melanoma): > 100 µM | TGI (UACC-62 melanoma): > 100 µM | TGI (UO-31 renal): > 100 µM | TGI (XF 498 CNS): > 100 µM
